Laboratory results taken from patent US12559506B2, “Indazole based compounds and associated methods of use” (Arvinas Operations, Inc., priority 2021, dated 2026).
Where two headings read alike, the source gives them in different places.

Target: T1, LRRK2 (endogenous, HiBit tagged) (Homo sapiens, UniProt Q5S007)
T1 construct: endogenous in cells; host or cells: HEK293 cells with HiBit knock-in at the endogenous LRRK2 locus, stably expressing firefly luciferase
Assay: Endogenous LRRK2 degradation assay, endogenous gene C-terminally HiBit-tagged in HEK293 cells (Nano-Glo Dual Luciferase)
Type: cell-based
Details: endogenous HiBit-tagged LRRK2 in HEK293 cells
Outline: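 LRRK2-HiBit quantified via Nano-Glo Dual Luciferase in HEK293 knock-in cells co-expressing firefly luciferase, after 24 h exposure to compound (1 μM final top, 1:3, 11 points). Values normalised to DMSO median per plate and curve-fitted; Alamar Blue viability run alongside.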

[1] = 24 hours treatment, read-out: **Endogenous WT Dmax (%)
[2] = 24 hours treatment, read-out: *Endogenous WT DC50
[3] = 24 hours treatment, read-out: Endogenous WT DC50
[4] = 24 hours treatment, read-out: Endogenous WT Dmax

T1 sequence (Q5S007 whole entry): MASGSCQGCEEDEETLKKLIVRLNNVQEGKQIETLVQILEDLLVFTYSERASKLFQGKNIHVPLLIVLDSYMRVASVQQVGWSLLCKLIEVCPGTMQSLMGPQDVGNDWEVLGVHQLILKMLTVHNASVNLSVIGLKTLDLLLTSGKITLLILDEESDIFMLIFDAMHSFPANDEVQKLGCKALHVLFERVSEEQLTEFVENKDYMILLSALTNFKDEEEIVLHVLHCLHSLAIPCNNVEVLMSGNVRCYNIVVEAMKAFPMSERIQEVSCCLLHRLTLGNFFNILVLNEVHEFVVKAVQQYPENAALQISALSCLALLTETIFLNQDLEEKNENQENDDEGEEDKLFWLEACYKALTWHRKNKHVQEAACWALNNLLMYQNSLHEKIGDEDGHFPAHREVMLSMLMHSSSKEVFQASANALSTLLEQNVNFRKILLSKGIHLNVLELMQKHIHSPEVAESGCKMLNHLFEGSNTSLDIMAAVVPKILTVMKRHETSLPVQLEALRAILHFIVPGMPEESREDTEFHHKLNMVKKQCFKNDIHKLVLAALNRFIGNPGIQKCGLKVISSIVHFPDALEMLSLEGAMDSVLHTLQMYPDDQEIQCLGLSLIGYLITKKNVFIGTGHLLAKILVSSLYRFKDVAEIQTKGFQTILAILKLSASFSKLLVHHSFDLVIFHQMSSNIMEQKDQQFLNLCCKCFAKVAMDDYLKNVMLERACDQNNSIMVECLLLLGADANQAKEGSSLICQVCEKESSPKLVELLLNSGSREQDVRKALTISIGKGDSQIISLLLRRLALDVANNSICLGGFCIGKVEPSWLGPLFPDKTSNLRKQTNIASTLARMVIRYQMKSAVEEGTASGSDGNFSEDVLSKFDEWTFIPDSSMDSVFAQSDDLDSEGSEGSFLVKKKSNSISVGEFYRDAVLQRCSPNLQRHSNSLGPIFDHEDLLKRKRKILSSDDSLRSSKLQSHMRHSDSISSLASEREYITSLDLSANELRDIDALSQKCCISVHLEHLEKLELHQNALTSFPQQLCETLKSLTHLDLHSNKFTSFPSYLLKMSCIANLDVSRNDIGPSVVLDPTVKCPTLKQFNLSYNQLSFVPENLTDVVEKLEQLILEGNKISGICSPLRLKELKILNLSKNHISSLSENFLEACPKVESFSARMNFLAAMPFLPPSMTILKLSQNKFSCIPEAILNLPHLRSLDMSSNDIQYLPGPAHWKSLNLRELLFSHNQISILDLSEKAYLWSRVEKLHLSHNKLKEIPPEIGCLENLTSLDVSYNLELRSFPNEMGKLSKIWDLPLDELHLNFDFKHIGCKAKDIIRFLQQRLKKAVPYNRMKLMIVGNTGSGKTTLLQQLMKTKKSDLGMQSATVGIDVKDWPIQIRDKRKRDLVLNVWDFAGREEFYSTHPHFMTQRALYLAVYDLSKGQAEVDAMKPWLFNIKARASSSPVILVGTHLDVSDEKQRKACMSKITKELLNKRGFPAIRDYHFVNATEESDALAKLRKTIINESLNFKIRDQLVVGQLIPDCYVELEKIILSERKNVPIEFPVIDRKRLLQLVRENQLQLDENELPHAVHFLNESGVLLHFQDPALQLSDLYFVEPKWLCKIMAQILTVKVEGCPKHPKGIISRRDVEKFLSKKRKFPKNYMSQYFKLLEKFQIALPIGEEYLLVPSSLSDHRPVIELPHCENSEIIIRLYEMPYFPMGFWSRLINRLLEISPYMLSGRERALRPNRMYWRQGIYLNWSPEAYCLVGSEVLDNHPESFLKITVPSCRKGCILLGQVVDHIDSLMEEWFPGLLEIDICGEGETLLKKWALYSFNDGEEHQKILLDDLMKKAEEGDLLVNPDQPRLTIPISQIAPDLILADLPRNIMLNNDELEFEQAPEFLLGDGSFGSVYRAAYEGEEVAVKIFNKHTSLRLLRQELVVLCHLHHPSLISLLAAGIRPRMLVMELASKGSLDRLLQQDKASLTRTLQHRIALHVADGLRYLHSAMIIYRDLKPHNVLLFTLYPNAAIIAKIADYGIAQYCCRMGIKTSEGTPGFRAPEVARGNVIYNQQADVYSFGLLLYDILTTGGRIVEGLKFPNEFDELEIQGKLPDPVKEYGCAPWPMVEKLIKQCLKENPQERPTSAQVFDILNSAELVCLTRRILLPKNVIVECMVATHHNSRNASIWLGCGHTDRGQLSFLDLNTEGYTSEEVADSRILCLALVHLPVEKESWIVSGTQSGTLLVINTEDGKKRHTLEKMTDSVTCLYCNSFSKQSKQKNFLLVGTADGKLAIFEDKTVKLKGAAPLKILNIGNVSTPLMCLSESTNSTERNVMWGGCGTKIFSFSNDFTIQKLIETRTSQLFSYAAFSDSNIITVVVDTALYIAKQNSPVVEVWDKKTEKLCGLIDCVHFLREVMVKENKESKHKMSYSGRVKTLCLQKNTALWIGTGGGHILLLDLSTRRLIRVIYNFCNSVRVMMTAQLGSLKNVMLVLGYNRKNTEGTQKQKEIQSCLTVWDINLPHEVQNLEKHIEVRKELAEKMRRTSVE

Row | Compound | Dmax [1] | DC50 [2] | DC50 [3] | Dmax [4] | also measured
1 | C[C@H]1CN(c2cc(-c3n[nH]c4ccc(OC5(C)CC5)cc34)ncn2)CCN1CCN1CCC2(CN(c3ccc4c(c3F)CN(C3CCC(=O)NC3=O)C4=O)C2)C(F)(F)C1 (stereo partly drawn) [Compound 317, 3-[5-(5,5-difluoro-7-{2-[(2S)-2-methyl-4-{6-[5-(1-methylcyclopropoxy)-1H-indazol-3-yl]pyrimidin-4-yl}piperazin-1-yl]ethyl}-2,7-diazaspiro[3.5]nonan-2-yl)-4-fluoro-1-oxo-2,3-dihydro-1H-isoindol-2-yl]piperidine-2,6-dione] | 50 to 70% | < 10 nM | – | – | –
2 | COc1cc(N2CCC(CN3CCC(F)(CN4CCN(c5cc(-c6n[nH]c7ccc(OC8(C)CC8)cc67)ncn5)CC4)CC3)CC2)cc2c1C(=O)N(C1CCC(=O)NC1=O)C2 (stereo not drawn) [Compound 216, 3-{5-[4-({4-fluoro-4-[(4-{6-[5-(1-methylcyclopropoxy)-1H-indazol-3-yl]pyrimidin-4-yl}piperazin-1-yl)methyl]piperidin-1-yl}methyl)piperidin-1-yl]-7-methoxy-1-oxo-2,3-dihydro-1H-isoindol-2-yl}piperidine-2,6-dione] | – | – | < 10 nM | ≥ 70% | –
3 | CC1(Oc2ccc3[nH]nc(-c4cc(N5CCC(CN6CCC(F)(CC7CCN(c8c(F)cc9c(c8F)CN(C8CCC(=O)NC8=O)C9=O)CC7)CC6)CC5)ncn4)c3c2)CC1 (stereo not drawn) [Compound 242, 3-{4,6-difluoro-5-[4-({4-fluoro-1-[(1-{6-[5-(1-methylcyclopropoxy)-1H-indazol-3-yl]pyrimidin-4-yl}piperidin-4-yl)methyl]piperidin-4-yl}methyl)piperidin-1-yl]-1-oxo-2,3-dihydro-1H-isoindol-2-yl}piperidine-2,6-dione] | – | – | < 10 nM | 50 to 70% | –
4 | CC1(Oc2cc3c(-c4cc(N5CCN(C[C@H]6CC[C@H](OC7CCN(c8ccc9c(c8F)CN(C8CCC(=O)NC8=O)C9=O)CC7)CC6)CC5)ncn4)n[nH]c3cn2)CC1 (stereo partly drawn) [Compound 258, 3-[4-fluoro-1-oxo-5-(4-{[(1r,4r)-4-[(4-{6-[5-(1-methylcyclopropoxy)-1H-pyrazolo[3,4-c]pyridin-3-yl]pyrimidin-4-yl}piperazin-1-yl)methyl]cyclohexyl]oxy}piperidin-1-yl)-2,3-dihydro-1H-isoindol-2-yl]piperidine-2,6-dione] | 50 to 70% | < 10 nM | – | – | –
5 | COc1c(N2CCC(CN3CCN(CC4CCN(c5cc(-c6n[nH]c7cc(F)c(OC8(C)CC8)cc67)ncn5)CC4)CC3(C)C)CC2)ccc2c1CN(C1CCC(=O)NC1=O)C2=O (stereo not drawn) [Compound 349, 3-{5-[4-({4-[(1-{6-[6-fluoro-5-(1-methylcyclopropoxy)-1H-indazol-3-yl]pyrimidin-4-yl}piperidin-4-yl)methyl]-2,2-dimethylpiperazin-1-yl}methyl)piperidin-1-yl]-4-methoxy-1-oxo-2,3-dihydro-1H-isoindol-2-yl}piperidine-2,6-dione] | – | < 10 nM | – | – | –
6 | CC1(Oc2ccc3[nH]nc(-c4cc(N5CCC(O[C@H]6CC[C@H](CN7CCN(c8c(F)cc9c(c8F)CN(C8CCC(=O)NC8=O)C9=O)CC7)CC6)CC5)ncn4)c3c2)CC1 (stereo partly drawn) [Compound 269, 3-[4,6-difluoro-1-oxo-5-(4-{[(1r,4r)-4-[(1-{6-[5-(1-methylcyclopropoxy)-1H-indazol-3-yl]pyrimidin-4-yl}piperidin-4-yl)oxy]cyclohexyl]methyl}piperazin-1-yl)-2,3-dihydro-1H-isoindol-2-yl]piperidine-2,6-dione] | 50 to 70% | < 10 nM | – | – | –
7 | CC1(Oc2ccc3n[nH]c(-c4cc(N5CCN(CCN6CCN(CC7CCN(c8ccc9c(c8)CN(C8CCC(=O)NC8=O)C9=O)CC7)CC6)CC5)ncn4)c3c2)CC1 (stereo not drawn) [Compound 66, 3-{5-[4-({4-[2-(4-{6-[5-(1-methylcyclopropoxy)-2H-indazol-3-yl]pyrimidin-4-yl}piperazin-1-yl)ethyl]piperazin-1-yl}methyl)piperidin-1-yl]-1-oxo-2,3-dihydro-1H-isoindol-2-yl}piperidine-2,6-dione] | – | – | – | – | Dmax (24 hours, read-out: **Endogenous WT Dmax (%)): ≥ 70%; DC50 (24 hours, read-out: *Endogenous WT DC50): < 10 nM
8 | CC1(Oc2ccc3n[nH]c(-c4cc(N5CCN(C[C@H]6CO[C@H](CN7CCN(c8ccc9c(c8F)CN(C8CCC(=O)NC8=O)C9=O)CC7)CO6)CC5)ncn4)c3c2)CC1 (stereo partly drawn) [Compound 296, 3-[4-fluoro-5-(4-{[(2r,5s)-5-[(4-{6-[5-(1-methylcyclopropoxy)-2H-indazol-3-yl]pyrimidin-4-yl}piperazin-1-yl)methyl]-1,4-dioxan-2-yl]methyl}piperazin-1-yl)-1-oxo-2,3-dihydro-1H-isoindol-2-yl]piperidine-2,6-dione] | 50 to 70% | < 10 nM | – | – | –
9 | CC1(Oc2ccc3[nH]nc(-c4cc(N5CCC(O[C@H]6CC[C@H](CN7CCN(c8ccc9c(c8Cl)CN(C8CCC(=O)NC8=O)C9=O)CC7)CC6)CC5)ncn4)c3c2)CC1 (stereo partly drawn) [Compound 249, 3-[4-chloro-1-oxo-5-(4-{[(1r,4r)-4-[(1-{6-[5-(1-methylcyclopropoxy)-1H-indazol-3-yl]pyrimidin-4-yl}piperidin-4-yl)oxy]cyclohexyl]methyl}piperazin-1-yl)-2,3-dihydro-1H-isoindol-2-yl]piperidine-2,6-dione] | – | – | < 10 nM | 50 to 70% | –
10 | CC1(Oc2cc3c(-c4cc(N5CCC(CN6CCN(CC7(F)CCN(c8ccc9c(c8F)CN(C8CCC(=O)NC8=O)C9=O)CC7)CC6)CC5)ncn4)[nH]nc3cc2F)CC1 (stereo not drawn) [Compound 229, 3-{4-fluoro-5-[4-fluoro-4-({4-[(1-{6-[6-fluoro-5-(1-methylcyclopropoxy)-2H-indazol-3-yl]pyrimidin-4-yl}piperidin-4-yl)methyl]piperazin-1-yl}methyl)piperidin-1-yl]-1-oxo-2,3-dihydro-1H-isoindol-2-yl}piperidine-2,6-dione] | – | – | < 10 nM | 50 to 70% | –
11 | COc1c(N2CCC(CN3CCN(CC4CCN(c5cc(-c6n[nH]c7cnc(OC8(C)CC8)cc67)ncn5)CC4)C[C@H]3C)CC2)ccc2c1CN(C1CCC(=O)NC1=O)C2=O (stereo partly drawn) [Compound 324, 3-[4-methoxy-5-(4-{[(2R)-2-methyl-4-[(1-{6-[5-(1-methylcyclopropoxy)-1H-pyrazolo[3,4-c]pyridin-3-yl]pyrimidin-4-yl}piperidin-4-yl)methyl]piperazin-1-yl]methyl}piperidin-1-yl)-1-oxo-2,3-dihydro-1H-isoindol-2-yl]piperidine-2,6-dione] | – | < 10 nM | – | – | –
12 | COc1c(N2CCN(CC3(F)CCN(CC4CCN(c5cc(-c6n[nH]c7cnc(OC8(C)CC8)cc67)ncn5)CC4)CC3)CC2)ccc2c1CN(C1CCC(=O)NC1=O)C2=O (stereo not drawn) [Compound 369, 3-{5-[4-({4-fluoro-1-[(1-{6-[5-(1-methylcyclopropoxy)-1H-pyrazolo[3,4-c]pyridin-3-yl]pyrimidin-4-yl}piperidin-4-yl)methyl]piperidin-4-yl}methyl)piperazin-1-yl]-4-methoxy-1-oxo-2,3-dihydro-1H-isoindol-2-yl}piperidine-2,6-dione] | – | – | < 10 nM | 50 to 70% | –
13 | CC1(Oc2ccc3[nH]nc(-c4cc(N5CCC(CN6C7CC6CN(CC6CCN(c8ccc9c(c8F)CN(C8CCC(=O)NC8=O)C9=O)CC6)C7)CC5)ncn4)c3c2)CC1 (stereo not drawn) [Compound 237, 3-{4-fluoro-5-[4-({6-[(1-{6-[5-(1-methylcyclopropoxy)-1H-indazol-3-yl]pyrimidin-4-yl}piperidin-4-yl)methyl]-3,6-diazabicyclo[3.1.1]heptan-3-yl}methyl)piperidin-1-yl]-1-oxo-2,3-dihydro-1H-isoindol-2-yl}piperidine-2,6-dione] | – | – | < 10 nM | ≥ 70% | –
